Results taken from patent publication US20150111262A1, “METHODS AND MATERIALS FOR PRODUCING FIVE CARBON BUILDING BLOCKS FROM PROLINE” (INVISTA North America S.á r.l., priority 2013, published 2015).

Key:
[1] = tested on: ω-transaminase of SEQ ID NO: 7; experiment: ω-transaminase activity, cadaverine to 5-aminopentanal; assay type: biochemical, Chromobacterium violaceum
Experimental: (§1) A sequence encoding an N-terminal His-tag was added to the Chromobacterium violaceum, Pseudomonas aeruginosa, Pseudomonas syringae and Escherichia coli genes encoding the ω-transaminases of SEQ ID NOs: 7, 8, 9 and 11, respectively (see FIG. 7) such that N-terminal HIS tagged ω-transaminases could be produced. The modified genes were cloned into a pET21a expression vector under the T7 promoter. Each expression vector was transformed into a BL21[DE3] E. coli host. Each resulting recombinant E. coli strain were cultivated at 37° C. in a 250 mL shake flask culture containing 50 mL LB media and antibiotic selection pressure, with shaking at 230 rpm. Each culture was induced overnight at 16° C. using 1 mM IPTG.
(§2) The pellet from each induced shake flask culture was harvested via centrifugation. Each pellet was resuspended and lysed via sonication. The cell debris was separated from the supernatant via centrifugation and the cell free extract was used immediately in enzyme activity assays.
(§3) Enzyme activity assays in the reverse direction (i.e., cadaverine to 5-aminopentanal) were performed in a buffer composed of a final concentration of 50 mM HEPES buffer (pH=7.5), 10 mM cadaverine, 10 mM pyruvate, and 100 μM pyridoxyl 5′ phosphate. […] The formation of L-alanine was quantified via RP-HPLC.

[2] = tested on: ω-transaminase of SEQ ID NO: 8; experiment: as above; assay type: biochemical, Pseudomonas aeruginosa
Experimental: as §1, §2, §3

[3] = tested on: ω-transaminase of SEQ ID NO: 9; experiment: as above; assay type: biochemical, Pseudomonas syringae
Experimental: as §1, §2, §3

[4] = molecular target: T1, ω-transaminase of SEQ ID NO: 11 (Escherichia coli, UniProt P42588); experiment: as above; assay type: biochemical
T1 construct: His-tag (N); made in house; host or cells: E. coli BL21[DE3], pET21a; cell free extract used
Experimental: as §1, §2, §3

[5] = tested on: ω-transaminase of SEQ ID NO: 7; experiment: ω-transaminase activity, 5-aminopentanoate to glutarate semialdehyde (forward direction); assay type: biochemical, Chromobacterium violaceum
Experimental: (§4) A sequence encoding an N-terminal His-tag was added to the genes from Chromobacterium violaceum and Pseudomonas syringae encoding the ω-transaminases of SEQ ID NOs: 7 and 9, respectively (see FIG. 7) such that N-terminal HIS tagged ω-transaminases could be produced. Each of the resulting modified genes was cloned into a pET21a expression vector under control of the T7 promoter and each expression vector was transformed into a BL21[DE3] E. coli host. The resulting recombinant E. coli strains were cultivated at 37° C. in a 250 mL shake flask culture containing 50 mL LB media and antibiotic selection pressure, with shaking at 230 rpm. Each culture was induced overnight at 16° C. using 1 mM IPTG.
as §2
Enzyme activity assays in the forward direction (i.e., 5-aminopentanoate to glutarate semialdehyde) were performed in a buffer composed of a final concentration of 50 mM HEPES buffer (pH=7.5), 10 mM 5-aminopentanoate, 10 mM pyruvate and 100 μM pyridoxyl 5′ phosphate. […] The formation of L-alanine from pyruvate was quantified via RP-HPLC.

[6] = tested on: ω-transaminase of SEQ ID NO: 9; experiment: ω-transaminase activity, glutarate semialdehyde to 5-aminopentanoate (reverse direction); assay type: biochemical, Pseudomonas syringae; settings: SEQ ID 9
Experimental: as §4, §2
Enzyme activity in the reverse direction (i.e., glutarate semialdehyde to 5-aminopentanoate) were performed in a buffer composed of a final concentration of 50 mM HEPES buffer (pH=7.5), 10 mM glutarate semialdehyde, 10 mM L-alanine and 100 μM pyridoxyl 5′ phosphate. […] The formation of pyruvate was quantified via RP-HPLC.

[7] = tested on: ω-transaminase of SEQ ID NO: 7; experiment: ω-transaminase activity, 5-aminopentanol to 5-oxopentanol; assay type: biochemical, Chromobacterium violaceum
Experimental: (§5) A nucleotide sequence encoding an N-terminal His-tag was added to the Chromobacterium violaceum, Pseudomonas aeruginosa, Pseudomonas syringae, Rhodobacter sphaeroides, Escherichia coli and Vibrio Fluvialis genes encoding the ω-transaminases of SEQ ID NOs: 7-12 respectively (see FIG. 7) such that N-terminal HIS tagged ω-transaminases could be produced. The modified genes were cloned into a pET21a expression vector under the T7 promoter. Each expression vector was transformed into a BL21[DE3] E. coli host. Each resulting recombinant E. coli strain were cultivated at 37° C. in a 250 mL shake flask culture containing 50 mL LB media and antibiotic selection pressure, with shaking at 230 rpm. Each culture was induced overnight at 16° C. using 1 mM IPTG.
as §2
(§6) Enzyme activity assays in the reverse direction (i.e., 5-aminopentanol to 5-oxopentanol) were performed in a buffer composed of a final concentration of 50 mM HEPES buffer (pH=7.5), 10 mM 5-aminopentanol, 10 mM pyruvate, and 100 μM pyridoxyl 5′ phosphate. […] The formation of L-alanine was quantified via RP-HPLC.

[8] = tested on: ω-transaminase of SEQ ID NO: 8; experiment: as above; assay type: biochemical, Pseudomonas aeruginosa
Experimental: as §5, §2, §6

[9] = tested on: ω-transaminase of SEQ ID NO: 9; experiment: as above; assay type: biochemical, Pseudomonas syringae
Experimental: as §5, §2, §6

[10] = tested on: ω-transaminase of SEQ ID NO: 10; experiment: as above; assay type: biochemical, Rhodobacter sphaeroides
Experimental: as §5, §2, §6

[11] = molecular target: T1, ω-transaminase of SEQ ID NO: 11; experiment: as above; assay type: biochemical
Experimental: as §5, §2, §6

[12] = tested on: ω-transaminase of SEQ ID NO: 12; experiment: as above; assay type: biochemical, Vibrio Fluvialis
Experimental: as §5, §2, §6

gene product of ygjG = gene product of ygjG (Escherichia coli, UniProt P42588); settings: Samsonova et al., BMC Microbiology, 2003; cited from earlier work
gene product of ygjG, sequence (P42588 whole entry): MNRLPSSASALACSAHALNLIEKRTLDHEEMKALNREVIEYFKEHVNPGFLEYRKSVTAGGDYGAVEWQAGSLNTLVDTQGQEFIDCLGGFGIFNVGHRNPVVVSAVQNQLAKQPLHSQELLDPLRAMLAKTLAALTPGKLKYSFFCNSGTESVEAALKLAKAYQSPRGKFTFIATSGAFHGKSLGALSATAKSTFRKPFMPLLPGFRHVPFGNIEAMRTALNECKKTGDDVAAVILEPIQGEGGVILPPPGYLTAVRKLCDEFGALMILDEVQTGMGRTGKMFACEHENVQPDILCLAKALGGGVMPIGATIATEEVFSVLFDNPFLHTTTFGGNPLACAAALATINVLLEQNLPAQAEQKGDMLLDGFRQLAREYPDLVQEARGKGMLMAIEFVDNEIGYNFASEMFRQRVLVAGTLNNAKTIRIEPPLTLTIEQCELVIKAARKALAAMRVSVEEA

T1 sequence (P42588 whole entry): as above

NCCCCC=O [5-aminopentanal]
acceptance as substrate, forming cadaverine, concluded from reversibility of the ω-transaminase activity ([1]; SEQ ID 7): accept 5-aminopentanal as substrate
acceptance as substrate, forming cadaverine, concluded from reversibility of the ω-transaminase activity ([2]; SEQ ID 8): accept 5-aminopentanal as substrate
acceptance as substrate, forming cadaverine, concluded from reversibility of the ω-transaminase activity ([3]; SEQ ID 9): accept 5-aminopentanal as substrate
acceptance as substrate, forming cadaverine, concluded from reversibility of the ω-transaminase activity ([4]; SEQ ID 11): accept 5-aminopentanal as substrate

NCCCCC(=O)O [5-aminopentanoate]
acceptance as substrate, forming 5-oxopentanoate, concluded from reversibility of the ω-transaminase activity ([5]; SEQ ID 7): accept 5-aminopentanoate as substrate
acceptance as substrate (conversion of pyruvate to L-alanine) vs empty vector control ([5]; cell free extract, 10 mM 5-aminopentanoate, 10 mM pyruvate, pH 7.5, 25° C., 4 h, RP-HPLC, FIG. 8): accepted 5-aminopentanoate as substrate
acceptance as substrate, forming 5-oxopentanoate, concluded from reversibility of the ω-transaminase activity [6]: accept 5-aminopentanoate as substrate

NCCCCCO [5-aminopentanol]
acceptance as substrate (conversion of pyruvate to L-alanine) vs empty vector control ([7]; SEQ ID NO 7, 10 mM 5-aminopentanol, 10 mM pyruvate, pH 7.5, 25° C., 4 h, FIG. 13): accepted 5-aminopentanol as substrate
acceptance as substrate (conversion of pyruvate to L-alanine) vs empty vector control ([8]; SEQ ID NO 8, 10 mM 5-aminopentanol, 10 mM pyruvate, pH 7.5, 25° C., 4 h, FIG. 13): accepted 5-aminopentanol as substrate
acceptance as substrate (conversion of pyruvate to L-alanine) vs empty vector control ([9]; SEQ ID NO 9, 10 mM 5-aminopentanol, 10 mM pyruvate, pH 7.5, 25° C., 4 h, FIG. 13): accepted 5-aminopentanol as substrate
acceptance as substrate (conversion of pyruvate to L-alanine) vs empty vector control ([10]; SEQ ID NO 10, 10 mM 5-aminopentanol, 10 mM pyruvate, pH 7.5, 25° C., 4 h, FIG. 13): accepted 5-aminopentanol as substrate
acceptance as substrate (conversion of pyruvate to L-alanine) vs empty vector control ([11]; SEQ ID NO 11, 10 mM 5-aminopentanol, 10 mM pyruvate, pH 7.5, 25° C., 4 h, FIG. 13): accepted 5-aminopentanol as substrate
acceptance as substrate (conversion of pyruvate to L-alanine) vs empty vector control ([12]; SEQ ID NO 12, 10 mM 5-aminopentanol, 10 mM pyruvate, pH 7.5, 25° C., 4 h, FIG. 13): accepted 5-aminopentanol as substrate

O=CCCCCO [5-oxopentanol]
acceptance as substrate, forming 5-aminopentanol, concluded from reversibility of the ω-transaminase activity ([7]; SEQ ID 7): accept 5-oxopentanol as substrate
acceptance as substrate, forming 5-aminopentanol, concluded from reversibility of the ω-transaminase activity ([8]; SEQ ID 8): accept 5-oxopentanol as substrate
acceptance as substrate, forming 5-aminopentanol, concluded from reversibility of the ω-transaminase activity ([9]; SEQ ID 9): accept 5-oxopentanol as substrate
acceptance as substrate, forming 5-aminopentanol, concluded from reversibility of the ω-transaminase activity ([10]; SEQ ID 10): accept 5-oxopentanol as substrate
acceptance as substrate, forming 5-aminopentanol, concluded from reversibility of the ω-transaminase activity ([11]; SEQ ID 11): accept 5-oxopentanol as substrate
acceptance as substrate, forming 5-aminopentanol, concluded from reversibility of the ω-transaminase activity ([12]; SEQ ID 12): accept 5-oxopentanol as substrate

NCCCCCN [cadaverine]
acceptance as substrate (conversion of pyruvate to L-alanine) vs empty vector control ([1]; SEQ ID NO 7, 10 mM cadaverine, 10 mM pyruvate, pH 7.5, 25° C., 4 h, FIG. 14): accepted cadaverine as substrate
acceptance as substrate (conversion of pyruvate to L-alanine) vs empty vector control ([2]; SEQ ID NO 8, 10 mM cadaverine, 10 mM pyruvate, pH 7.5, 25° C., 4 h, FIG. 14): accepted cadaverine as substrate
acceptance as substrate (conversion of pyruvate to L-alanine) vs empty vector control ([3]; SEQ ID NO 9, 10 mM cadaverine, 10 mM pyruvate, pH 7.5, 25° C., 4 h, FIG. 14): accepted cadaverine as substrate
acceptance as substrate (conversion of pyruvate to L-alanine) vs empty vector control ([4]; SEQ ID NO 11, 10 mM cadaverine, 10 mM pyruvate, pH 7.5, 25° C., 4 h, FIG. 14): accepted cadaverine as substrate
acceptance as diamine substrate (gene product of ygjG): accepts

NCCCCN [putrescine]
acceptance as diamine substrate (gene product of ygjG): accepts

NCCCCNCCCN [spermidine]
acceptance as diamine substrate (gene product of ygjG): accepts
